# Paper PMC4967029 (Drug testing and analysis, 2015)
# Read-outs that look alike come from different tables or passages of the source.
# Experiments:
# [1] = Urine time course of betel biomarkers after betel chewing; conditions: for return to baseline levels in urine (time post-chewing) / time of peak in urine post-chewing: participant 1
# [2] = Hair analysis for betel related compounds; assay type: in vivo, human; conditions: for levels in hair: hair sample from a tobacco consumer
# [3] = for time of peak in saliva post-chewing: after one serving of betel nut/quid, n=4; for detected in saliva above the limit of detection up to (time after chewing): all participants
# [4] = cited from earlier work; for elimination half-life (t1/2): human urine
# [5] = Stability study of betel alkaloid standards in MeOH, HCl and NaOH at 45°C; assay type: physicochemical; conditions: 1N NaOH; for fate of the carboxylic acids in basic conditions: after 24 h
# [6] = after infusion; cited from earlier work
SMILES,elimination half-life (t1/2) [4] [h],return to baseline levels in urine (time post-chewing) [1],time of peak in urine post-chewing [1],return to baseline levels in saliva (time post-chewing) ([3]; saliva) [h],time of peak in saliva post-chewing ([3]; saliva) [h],detected in saliva above the limit of detection up to (time after chewing) ([3]; saliva),other results
"CN1CCCC(C(=O)O)C1 (stereo not shown) [NMNA, N-methylnipecotic acid]",7.9,,,,,,"detection in urine samples ([1]; LC-MS): failed; detection in hair samples ([2]; hair of participants who chewed betel nuts at least once daily for ½-2 h): could not detect; detection in saliva samples ([3]; saliva, LC-MS): failed; urinary NMNA excretion ([4]; subjects consumed water extracts of areca nuts): 1298 ng/mg creatinine; urinary excretion of NMNA relative to that of arecaidine ([4]; urine): < 25%"
CN1CCC=C(C(=O)O)C1 [arecaidine],4.3,approximately 8 h,approximately 2 h,8,≤ 2,up to 8 h,fate of the carboxylic acids in basic conditions [5]: disappeared
COC(=O)C1=CCCN(C)C1 [arecoline],0.97,approximately 8 h,approximately 2 h,8,≤ 2,up to 8 h,stability in basic conditions [5]: not stable; time to hydrolysis to the carboxylic acid [5]: up to 1 hour; disappearance of arecoline from plasma [6]: ≥ 15 min
C=CCc1ccc(OC)c(OC2OC(C(=O)O)C(O)C(O)C2O)c1 (stereo not shown) [chavibetol glucuronide],,approximately 8 h,approximately 2 h,,,,
C=CCc1ccc(OC)c(O)c1 [chavibetol],,,,2,0.5 to 1,,"detection in saliva ([3]; participant 2, who chewed exclusively betel nut): absence; detection in saliva ([3]; participants 1, 3 and 4, who consumed Piper betle leaves in their BQ): detected"
CN1C(=O)CC[C@H]1c1cccnc1 [cotinine],,,,,,,levels in hair [2]: high levels
O=C(O)C1=CCCNC1 [guvacine],,approximately 8 h,approximately 2 h,8,≤ 2,up to 8 h,fate of the carboxylic acids in basic conditions [5]: disappeared
COC(=O)C1=CCCNC1 [guvacoline],,approximately 8 h,approximately 2 h,8,≤ 2,up to 8 h,stability in basic conditions [5]: not stable; time to hydrolysis to the carboxylic acid [5]: up to 1 hour
CN1CCC[C@H]1c1cccnc1 [nicotine],,,,,,,levels in hair [2]: high levels
